# From PubChem BioAssay (NCI)
#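 Five compound concentrations were applied to cells in 96-well plates for 48 hours; endpoints were derived by simple linear interpolation of the resulting dose-response curve. TGI: concentration producing complete growth inhibition.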
# Key:
# Experiment in all cases: NCI anticancer screen, dose series, 48 h
# 786-0 renal = test system: 786-0 renal
# A498 renal = test system: A498 renal
# A549 NSCLC = test system: A549 NSCLC
# ACHN renal = test system: ACHN renal
# CAKI-1 renal = test system: CAKI-1 renal
# CCRF-CEM leukemia = test system: CCRF-CEM leukemia
# COLO 205 colon = test system: COLO 205 colon
# DLD-1 colon = test system: DLD-1 colon
# DMS 114 small cell lung = test system: DMS 114 small cell lung
# DMS 273 small cell lung = test system: DMS 273 small cell lung
# EKVX NSCLC = test system: EKVX NSCLC
# HCT-116 colon = test system: HCT-116 colon
# HCT-15 colon = test system: HCT-15 colon
# HL-60(TB) leukemia = test system: HL-60(TB) leukemia
# HOP-18 NSCLC = test system: HOP-18 NSCLC
# HOP-62 NSCLC = test system: HOP-62 NSCLC
# HOP-92 NSCLC = test system: HOP-92 NSCLC
# HT29 colon = test system: HT29 colon
# IGROV1 ovarian = test system: IGROV1 ovarian
# K-562 leukemia = test system: K-562 leukemia
# KM12 colon = test system: KM12 colon
# KM20L2 colon = test system: KM20L2 colon
# LXFL 529 NSCLC = test system: LXFL 529 NSCLC
# M14 melanoma = test system: M14 melanoma
# M19-MEL melanoma = test system: M19-MEL melanoma
# MALME-3M melanoma = test system: MALME-3M melanoma
# MOLT-4 leukemia = test system: MOLT-4 leukemia
# NCI-H226 lung = test system: NCI-H226 lung
# NCI-H23 lung = test system: NCI-H23 lung
# NCI-H460 lung = test system: NCI-H460 lung
# NCI-H522 lung = test system: NCI-H522 lung
# OVCAR-3 ovarian = test system: OVCAR-3 ovarian
# OVCAR-4 ovarian = test system: OVCAR-4 ovarian
# OVCAR-5 ovarian = test system: OVCAR-5 ovarian
# OVCAR-8 ovarian = test system: OVCAR-8 ovarian
# RPMI-8226 leukemia = test system: RPMI-8226 leukemia
# RXF-631 renal = test system: RXF-631 renal
# SF-268 CNS = test system: SF-268 CNS
# SF-295 CNS = test system: SF-295 CNS
# SF-539 CNS = test system: SF-539 CNS
# SK-MEL-2 melanoma = test system: SK-MEL-2 melanoma
# SK-MEL-28 melanoma = test system: SK-MEL-28 melanoma
# SK-MEL-5 melanoma = test system: SK-MEL-5 melanoma
# SK-OV-3 ovarian = test system: SK-OV-3 ovarian
# SN12C renal = test system: SN12C renal
# SNB-19 CNS = test system: SNB-19 CNS
# SNB-75 CNS = test system: SNB-75 CNS
# SNB-78 CNS = test system: SNB-78 CNS
# SR leukemia = test system: SR leukemia
# SW-620 colon = test system: SW-620 colon
# TK-10 renal = test system: TK-10 renal
# U251 CNS = test system: U251 CNS
# UACC-257 melanoma = test system: UACC-257 melanoma
# UACC-62 melanoma = test system: UACC-62 melanoma
# UO-31 renal = test system: UO-31 renal
# XF 498 CNS = test system: XF 498 CNS
# BT-549 breast = test system: BT-549 breast
# DU-145 prostate = test system: DU-145 prostate
# HCC-2998 colon = test system: HCC-2998 colon
# HS 578T breast = test system: HS 578T breast
# LOX IMVI melanoma = test system: LOX IMVI melanoma
# MCF7 breast = test system: MCF7 breast
# MDA-MB-231 breast = test system: MDA-MB-231 breast
# MDA-MB-435 = test system: MDA-MB-435
# MDA-N = test system: MDA-N
# NCI/ADR-RES ovarian = test system: NCI/ADR-RES ovarian
# PC-3 prostate = test system: PC-3 prostate
# RXF 393 renal = test system: RXF 393 renal
# T-47D breast = test system: T-47D breast
compound,measurement,setting,value
O=C(CC/C(CC(=O)c1ccc(Cl)cc1)=N/O)Nc1ccc(Cl)c(Cl)c1,TGI,786-0 renal,> 100 µM
same,TGI,A498 renal,> 100 µM
same,TGI,A549 NSCLC,> 100 µM
same,TGI,ACHN renal,> 100 µM
same,TGI,CAKI-1 renal,> 100 µM
same,TGI,CCRF-CEM leukemia,> 100 µM
same,TGI,COLO 205 colon,> 100 µM
same,TGI,DLD-1 colon,> 100 µM
same,TGI,DMS 114 small cell lung,> 100 µM
same,TGI,DMS 273 small cell lung,> 100 µM
same,TGI,EKVX NSCLC,> 100 µM
same,TGI,HCT-116 colon,> 100 µM
same,TGI,HCT-15 colon,> 100 µM
same,TGI,HL-60(TB) leukemia,> 100 µM
same,TGI,HOP-18 NSCLC,> 100 µM
same,TGI,HOP-62 NSCLC,> 100 µM
same,TGI,HOP-92 NSCLC,> 100 µM
same,TGI,HT29 colon,> 100 µM
same,TGI,IGROV1 ovarian,> 100 µM
same,TGI,K-562 leukemia,> 100 µM
same,TGI,KM12 colon,> 100 µM
same,TGI,KM20L2 colon,> 100 µM
same,TGI,LXFL 529 NSCLC,> 100 µM
same,TGI,M14 melanoma,> 100 µM
same,TGI,M19-MEL melanoma,> 100 µM
same,TGI,MALME-3M melanoma,> 100 µM
same,TGI,MOLT-4 leukemia,> 100 µM
same,TGI,NCI-H226 lung,> 100 µM
same,TGI,NCI-H23 lung,> 100 µM
same,TGI,NCI-H460 lung,> 100 µM
same,TGI,NCI-H522 lung,> 100 µM
same,TGI,OVCAR-3 ovarian,> 100 µM
same,TGI,OVCAR-4 ovarian,> 100 µM
same,TGI,OVCAR-5 ovarian,> 100 µM
same,TGI,OVCAR-8 ovarian,> 100 µM
same,TGI,RPMI-8226 leukemia,> 100 µM
same,TGI,RXF-631 renal,> 100 µM
same,TGI,SF-268 CNS,> 100 µM
same,TGI,SF-295 CNS,> 100 µM
same,TGI,SF-539 CNS,> 100 µM
same,TGI,SK-MEL-2 melanoma,> 100 µM
same,TGI,SK-MEL-28 melanoma,> 100 µM
same,TGI,SK-MEL-5 melanoma,> 100 µM
same,TGI,SK-OV-3 ovarian,> 100 µM
same,TGI,SN12C renal,> 100 µM
same,TGI,SNB-19 CNS,> 100 µM
same,TGI,SNB-75 CNS,> 100 µM
same,TGI,SNB-78 CNS,> 100 µM
same,TGI,SR leukemia,> 100 µM
same,TGI,SW-620 colon,> 100 µM
same,TGI,TK-10 renal,> 100 µM
same,TGI,U251 CNS,> 100 µM
same,TGI,UACC-257 melanoma,> 100 µM
same,TGI,UACC-62 melanoma,> 100 µM
same,TGI,UO-31 renal,> 100 µM
same,TGI,XF 498 CNS,> 100 µM
C=C(CN(C)C)C(=O)c1cc(C)ccc1C,TGI,786-0 renal,11.4 µM
same,TGI,A498 renal,43.5 µM
same,TGI,A549 NSCLC,41.6 µM
same,TGI,ACHN renal,11.8 µM
same,TGI,BT-549 breast,32.5 µM
same,TGI,CAKI-1 renal,11.8 µM
same,TGI,CCRF-CEM leukemia,1.37 µM
same,TGI,COLO 205 colon,3.53 µM
same,TGI,DLD-1 colon,7.47 µM
same,TGI,DMS 114 small cell lung,21.4 µM
same,TGI,DMS 273 small cell lung,39.3 µM
same,TGI,DU-145 prostate,22 µM
same,TGI,EKVX NSCLC,55.3 µM
same,TGI,HCC-2998 colon,29.9 µM
same,TGI,HCT-116 colon,17.4 µM
same,TGI,HCT-15 colon,10.6 µM
same,TGI,HL-60(TB) leukemia,0.446 µM
same,TGI,HOP-18 NSCLC,11.6 µM
same,TGI,HOP-62 NSCLC,33.8 µM
same,TGI,HOP-92 NSCLC,8.2 µM
same,TGI,HS 578T breast,> 91.3 µM
same,TGI,HT29 colon,29.3 µM
same,TGI,IGROV1 ovarian,34.7 µM
same,TGI,K-562 leukemia,8.16 µM
same,TGI,KM12 colon,38.3 µM
same,TGI,KM20L2 colon,61.2 µM
same,TGI,LOX IMVI melanoma,13.8 µM
same,TGI,LXFL 529 NSCLC,5.42 µM
same,TGI,M14 melanoma,7.21 µM
same,TGI,M19-MEL melanoma,19.6 µM
same,TGI,MALME-3M melanoma,7.77 µM
same,TGI,MCF7 breast,11.5 µM
same,TGI,MDA-MB-231 breast,36.2 µM
same,TGI,MDA-MB-435,22.1 µM
same,TGI,MDA-N,21.4 µM
same,TGI,MOLT-4 leukemia,3.86 µM
same,TGI,NCI-H226 lung,27.8 µM
same,TGI,NCI-H23 lung,33.4 µM
same,TGI,NCI-H460 lung,44.6 µM
same,TGI,NCI-H522 lung,1.52 µM
same,TGI,NCI/ADR-RES ovarian,> 85.1 µM
same,TGI,OVCAR-3 ovarian,18.1 µM
same,TGI,OVCAR-4 ovarian,39.4 µM
same,TGI,OVCAR-5 ovarian,31.2 µM
same,TGI,OVCAR-8 ovarian,66.5 µM
same,TGI,PC-3 prostate,28.2 µM
same,TGI,RPMI-8226 leukemia,5.34 µM
same,TGI,RXF 393 renal,9.52 µM
same,TGI,SF-268 CNS,68.3 µM
same,TGI,SF-295 CNS,34.1 µM
same,TGI,SF-539 CNS,19.2 µM
same,TGI,SK-MEL-2 melanoma,37.8 µM
same,TGI,SK-MEL-28 melanoma,42.5 µM
same,TGI,SK-MEL-5 melanoma,27.2 µM
same,TGI,SK-OV-3 ovarian,33 µM
same,TGI,SN12C renal,42.6 µM
same,TGI,SNB-19 CNS,39.2 µM
same,TGI,SNB-75 CNS,43.4 µM
same,TGI,SNB-78 CNS,81.5 µM
same,TGI,SR leukemia,6.63 µM
same,TGI,SW-620 colon,5.96 µM
same,TGI,T-47D breast,15.7 µM
same,TGI,TK-10 renal,20.4 µM
same,TGI,U251 CNS,33.5 µM
same,TGI,UACC-257 melanoma,26 µM
same,TGI,UACC-62 melanoma,29.7 µM
same,TGI,UO-31 renal,19.1 µM
same,TGI,XF 498 CNS,33 µM
CCOC(=O)N[C@H]1CCc2cc(O)c(OC)c(OC)c2-c2ccc(SC)c(=O)cc21,TGI,786-0 renal,> 59.9 µM
same,TGI,A498 renal,0.922 µM
same,TGI,A549 NSCLC,> 100 µM
same,TGI,ACHN renal,> 100 µM
same,TGI,CAKI-1 renal,> 65.3 µM
same,TGI,CCRF-CEM leukemia,> 13.9 µM
same,TGI,COLO 205 colon,1.22 µM
same,TGI,DLD-1 colon,> 100 µM
same,TGI,DMS 114 small cell lung,0.473 µM
same,TGI,DMS 273 small cell lung,> 100 µM
same,TGI,EKVX NSCLC,> 100 µM
same,TGI,HCC-2998 colon,> 100 µM
same,TGI,HCT-116 colon,10.7 µM
same,TGI,HCT-15 colon,> 100 µM
same,TGI,HOP-18 NSCLC,> 100 µM
same,TGI,HOP-62 NSCLC,> 100 µM
same,TGI,HOP-92 NSCLC,0.0786 µM
same,TGI,HT29 colon,7.22 µM
same,TGI,IGROV1 ovarian,> 86.9 µM
same,TGI,K-562 leukemia,> 100 µM
same,TGI,KM12 colon,0.413 µM
same,TGI,KM20L2 colon,0.0301 µM
same,TGI,LOX IMVI melanoma,> 100 µM
same,TGI,LXFL 529 NSCLC,> 92.3 µM
same,TGI,M14 melanoma,51.5 µM
same,TGI,M19-MEL melanoma,> 100 µM
same,TGI,MALME-3M melanoma,> 100 µM
same,TGI,MOLT-4 leukemia,> 100 µM
same,TGI,NCI-H226 lung,1.25 µM
same,TGI,NCI-H23 lung,9.95 µM
same,TGI,NCI-H460 lung,3.58 µM
same,TGI,NCI-H522 lung,0.046 µM
same,TGI,OVCAR-3 ovarian,0.0375 µM
same,TGI,OVCAR-4 ovarian,> 100 µM
same,TGI,OVCAR-5 ovarian,> 100 µM
same,TGI,OVCAR-8 ovarian,> 100 µM
same,TGI,RPMI-8226 leukemia,> 72.6 µM
same,TGI,RXF 393 renal,0.0207 µM
same,TGI,RXF-631 renal,2.91 µM
same,TGI,SF-268 CNS,37.8 µM
same,TGI,SF-295 CNS,0.0995 µM
same,TGI,SF-539 CNS,0.044 µM
same,TGI,SK-MEL-2 melanoma,0.173 µM
same,TGI,SK-MEL-28 melanoma,> 100 µM
same,TGI,SK-MEL-5 melanoma,0.0145 µM
same,TGI,SK-OV-3 ovarian,> 8.57 µM
same,TGI,SN12C renal,> 58.9 µM
same,TGI,SNB-19 CNS,> 100 µM
same,TGI,SNB-78 CNS,> 8 µM
same,TGI,SR leukemia,> 100 µM
same,TGI,SW-620 colon,> 100 µM
same,TGI,TK-10 renal,> 100 µM
same,TGI,U251 CNS,> 6.92 µM
same,TGI,UACC-257 melanoma,> 100 µM
same,TGI,UACC-62 melanoma,> 100 µM
same,TGI,UO-31 renal,> 100 µM
same,TGI,XF 498 CNS,> 44.4 µM
